In patent US7691985B2, “Skeletal-targeted radiation to treat bone-associated pathologies” (priority 1999, dated 2010):

How the values were obtained:
multiple myeloma [1] = assay: Single patient: 40 Gy ^153Sm-EDTMP, melphalan 200 mg/m^2 (Example 14); assay type: in vivo, human; conditions: present tense
Procedure: The patient, a person with an original diagnosis of multiple myeloma and diagnosed with primary refractory disease, is given a trace dose of ^153Sm-EDTMP, and the 24 hr whole body uptake is calculated. Based on dosimetry calculations a therapeutic dose is designed to deliver 40 Gy to the marrow. After the level of ^153Sm in the patient fell to ≦3.6 mCi, the patient receives a dose of 200 mg/m^2 of melphalan (I.V.). The patient's stem cells are reinfused two days after the melphalan, with G-CSF and antibiotics, as needed.

[2] = ^153Sm-EDTMP 30-50 Gy with melphalan up to 200 mg/m^2, response and urinary tract side effects; assay type: in vivo; conditions: 30-50 Gy with melphalan as high as 200 mg/m^2
[3] = system: rats inoculated with murine myeloma cells; conditions: used with melphalan, followed by bone marrow transplant; cited from earlier work
multiple myeloma [4] = conditions: 140 mg/m^2 of body-surface area intravenously; cited from earlier work
[5] = Stability of ^166Ho-DOTMP with and without stabilizer: radiochemical purity by ITLC, CEC, HPLC (Example 15); assay type: physicochemical
Procedure: Samples of ^166Ho-DOTMP were prepared according to the procedure in Example 1 using ascorbic acid, 55 mg/mL, as the stabilizer. Identical samples were prepared without ascorbic acid. The solutions were analyzed for radiochemical purity after 1 hour, 6 hours, 10 hours, 24 hours, and 48 hours, using Instant Thin Layer Chromatography (ILTC), Cation Exchange Chromatography (CEC) and High Performance Liquid Chromatography (HPLC).

[6] = Biodistribution study of ^166Ho-DOTMP in rats (Example 16); assay type: in vivo, Sprague Dawley rats; conditions: rat, i.v.
Procedure: Sprague Dawley (S. D.) rats were injected intravenously (inj. i.v.) with a solution of ^166Ho-DOTMP (“Ho-DO”) containing ascorbic acid (asc) as a stabilizer. The animals were sacrificed and organs excised and counted in a radioactive well counter after decay to appropriate levels. Bone (femur) samples were counted and converted to a total bone percent injected dose using a factor of 25 times femur percent.
A second group of Sprague Dawley rats were injected intravenously with a solution of ^166Ho-DOTMP without having the stabilizer. The animals were sacrificed and organs excised and counted in a radioactive well counter after decay to appropriate levels. Bone (femur) samples were counted and converted to a total bone percent injected dose using a factor of 25 times femur percent.
FIG. 2 illustrates the data uptake base on the % injection dose. FIG. 3 illustrates the data uptake base on the % injection dose per gram(mass). FIG. 4 illustrates the data uptake base on the tissue/blood ratio. Abbreviations: Blo=blood; Tai=tail; Lun=lung; Liv=liver; Spl=spleen; Sto=stomach; Kid=kidneys; Int=intestines; Bon=bone; SD=standard deviation.

[7] = 40 Gy to marrow, melphalan 200 mg/m^2, one patient

## O=P([O-])(O)CN(CCN(CP(=O)([O-])O)CP(=O)(O)O)CP(=O)([O-])O.[153Sm+3] [^153Sm-EDTMP]
Multiple myeloma [1]; [7]
  days post stem cell transplant to neutrophil engraftment (ANC >500): Fourteen
  days post transplant to platelet engraftment (>20,000): twenty
Multiple myeloma [1]; five months post treatment, one patient
  response: complete remission
[2]
  total response rates: > 90%
  urinary tract side effects: without significant urinary tract side effects
[3]
  survival: improves survival

## N[C@@H](Cc1ccc(N(CCCl)CCCl)cc1)C(=O)O [melphalan, L-phenylalanine, 4-[bis(2-chloroethyl)amino]-]
Multiple myeloma [4]
  patients with partial or complete remissions: about 40%

## O=P([O-])(O)CN1CCN(CP(=O)([O-])O)CCN(CP(=O)(O)O)CCN(CP(=O)([O-])O)CC1.[166Ho+3] [Ho-DO only]
[5]; 1 hr
  radiochemical purity, CEC: 99.0
  radiochemical purity, HPLC: 100
  radiochemical purity, ITLC: 99.2
[5]; 6 hrs
  radiochemical purity, CEC: 97.8
  radiochemical purity, HPLC: 95.4
  radiochemical purity, ITLC: 98.1
[5]; 10 hrs
  radiochemical purity, CEC: 97.8
  radiochemical purity, HPLC: 94.9
  radiochemical purity, ITLC: 97.5
[5]; 24 hrs
  radiochemical purity, CEC: 97.2
  radiochemical purity, HPLC: 85.8
  radiochemical purity, ITLC: 97.6
[5]; 48 hrs
  radiochemical purity, CEC: 97.1
  radiochemical purity, ITLC: 96.5
[6]
  Percent Injection Dose, Blood: 0.29 Percent Injection Dose
  Percent Injection Dose, Intestine: 3.81 Percent Injection Dose
  Percent Injection Dose, Kidney: 0.72 Percent Injection Dose
  Percent Injection Dose, Liver: 2.40 Percent Injection Dose
  Percent Injection Dose, Lung: 0.00 Percent Injection Dose
  Percent Injection Dose, Spleen: 0.56 Percent Injection Dose
  Percent Injection Dose, Stomach: 0.20 Percent Injection Dose
  Percent Injection Dose, Tail: 3.21 Percent Injection Dose
  Percent Injection Dose/Gram, Blood: 0.02 Percent Injection Dose/Gram
  Percent Injection Dose/Gram, Intestine: 0.23 Percent Injection Dose/Gram
  Percent Injection Dose/Gram, Kidney: 0.38 Percent Injection Dose/Gram
  Percent Injection Dose/Gram, Liver: 0.31 Percent Injection Dose/Gram
  Percent Injection Dose/Gram, Lung: 0.04 Percent Injection Dose/Gram
  Percent Injection Dose/Gram, Spleen: 1.03 Percent Injection Dose/Gram
  Percent Injection Dose/Gram, Stomach: 0.05 Percent Injection Dose/Gram
  Percent Injection Dose/Gram, Tail: 0.51 Percent Injection Dose/Gram
  Tissue/Blood Ratio, Blood: 1.00
  Tissue/Blood Ratio, Bone: 296.80
  Tissue/Blood Ratio, Intestine: 13.80
  Tissue/Blood Ratio, Kidney: 22.84
  Tissue/Blood Ratio, Liver: 18.90
  Tissue/Blood Ratio, Lung: 2.34
  Tissue/Blood Ratio, Spleen: 62.09
  Tissue/Blood Ratio, Stomach: 3.24
  Tissue/Blood Ratio, Tail: 31.33
[6]; femur
  Percent Injection Dose/Gram, Bone: 4.84 Percent Injection Dose/Gram
[6]; total bone = 25 times femur percent
  Percent Injection Dose, Bone: 50.05 Percent Injection Dose
